According to ChEMBL document CHEMBL4507272 (2021):

Assays:
[1] = biological target: Calcium-dependent protein kinase 1 (Plasmodium falciparum) (UniProt P62344); settings: Compound concentration 1000.0 nM
[2] = biological target: SRSF protein kinase 2 (Homo sapiens) (UniProt P78362); settings: Compound concentration 1000.0 nM
[3] = system: Mast/stem cell growth factor receptor Kit (Homo sapiens), P10721 [V559D,T670I]; settings: Compound concentration 1000.0 nM
[4] = biological target: Receptor-type tyrosine-protein kinase FLT3 (Homo sapiens) (UniProt P36888); settings: Compound concentration 1000.0 nM
[5] = biological target: Receptor-interacting serine/threonine-protein kinase 4 (Homo sapiens) (UniProt P57078); settings: Compound concentration 1000.0 nM
Chain of Receptor-interacting serine/threonine-protein kinase 4 (Homo sapiens) (P57078 whole entry): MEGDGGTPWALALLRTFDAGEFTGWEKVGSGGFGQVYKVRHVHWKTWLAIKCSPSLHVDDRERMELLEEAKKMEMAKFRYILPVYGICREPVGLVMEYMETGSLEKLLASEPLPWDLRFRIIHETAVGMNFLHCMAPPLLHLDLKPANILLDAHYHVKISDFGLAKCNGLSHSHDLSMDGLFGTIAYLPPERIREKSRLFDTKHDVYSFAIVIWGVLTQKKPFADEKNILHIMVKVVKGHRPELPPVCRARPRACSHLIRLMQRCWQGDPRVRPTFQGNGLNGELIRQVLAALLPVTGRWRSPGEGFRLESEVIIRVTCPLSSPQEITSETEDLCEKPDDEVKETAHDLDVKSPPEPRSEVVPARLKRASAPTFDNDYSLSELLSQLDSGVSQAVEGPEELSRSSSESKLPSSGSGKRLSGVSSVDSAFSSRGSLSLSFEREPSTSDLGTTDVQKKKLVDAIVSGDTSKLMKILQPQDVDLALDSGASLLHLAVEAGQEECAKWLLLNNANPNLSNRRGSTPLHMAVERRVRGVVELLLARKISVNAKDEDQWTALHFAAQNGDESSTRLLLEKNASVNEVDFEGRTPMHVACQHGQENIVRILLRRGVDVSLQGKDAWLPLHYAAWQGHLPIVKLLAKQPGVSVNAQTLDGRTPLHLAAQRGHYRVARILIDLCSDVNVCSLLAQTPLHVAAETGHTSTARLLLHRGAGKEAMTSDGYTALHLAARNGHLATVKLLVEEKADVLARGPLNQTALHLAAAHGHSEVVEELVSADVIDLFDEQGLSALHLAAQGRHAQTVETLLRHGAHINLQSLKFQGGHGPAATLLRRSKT

[6] = biological target: Sodium-dependent dopamine transporter (Homo sapiens) (UniProt Q01959); settings: Compound concentration 10.0 uM
[7] = biological target: Testis-specific serine/threonine-protein kinase 3 (Homo sapiens) (UniProt Q96PN8); settings: Compound concentration 1000.0 nM
[8] = biological target: Serine/threonine-protein kinase pim-1 (Homo sapiens) (UniProt P11309); settings: Compound concentration 1000.0 nM
[9] = biological target: Serine/threonine-protein kinase pim-2 (Homo sapiens) (UniProt Q9P1W9); settings: Compound concentration 1000.0 nM
[10] = biological target: Cyclin-dependent kinase 19 (Homo sapiens) (UniProt Q9BWU1); settings: Compound concentration 1000.0 nM
Chain of Cyclin-dependent kinase 19 (Homo sapiens) (Q9BWU1 whole entry): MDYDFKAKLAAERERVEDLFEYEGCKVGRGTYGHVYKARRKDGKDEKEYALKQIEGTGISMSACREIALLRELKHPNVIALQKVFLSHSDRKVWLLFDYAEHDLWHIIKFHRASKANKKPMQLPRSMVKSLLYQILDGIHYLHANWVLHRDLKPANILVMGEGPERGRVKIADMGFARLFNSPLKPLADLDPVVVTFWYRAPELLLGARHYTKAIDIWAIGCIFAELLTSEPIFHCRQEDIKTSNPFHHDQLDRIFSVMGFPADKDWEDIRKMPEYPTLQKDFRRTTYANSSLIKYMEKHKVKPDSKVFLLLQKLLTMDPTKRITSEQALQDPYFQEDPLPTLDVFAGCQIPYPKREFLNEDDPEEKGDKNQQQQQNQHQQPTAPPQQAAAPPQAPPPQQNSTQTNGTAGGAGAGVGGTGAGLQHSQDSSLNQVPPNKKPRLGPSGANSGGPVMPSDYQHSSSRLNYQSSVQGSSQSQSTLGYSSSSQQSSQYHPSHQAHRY

[11] = biological target: Serine/threonine-protein kinase WNK1 (Homo sapiens) (UniProt Q9H4A3); settings: Compound concentration 1000.0 nM
[12] = biological target: BDNF/NT-3 growth factors receptor (Homo sapiens) (UniProt Q16620); settings: Compound concentration 1000.0 nM
[13] = biological target: Tyrosine-protein kinase JAK2 (Homo sapiens) (UniProt O60674); settings: Compound concentration 1000.0 nM
[14] = system: Tyrosine-protein kinase ABL1 (Homo sapiens), P00519 [F317L]; settings: Compound concentration 1000.0 nM
[15] = biological target: Cyclin-dependent kinase 2 (Homo sapiens) (UniProt P24941); settings: Compound concentration 1000.0 nM
[16] = biological target: Ribosomal protein S6 kinase alpha-2 (Homo sapiens) (UniProt Q15349); settings: Compound concentration 1000.0 nM
[17] = biological target: Mitogen-activated protein kinase 10 (Homo sapiens) (UniProt P53779); settings: Compound concentration 1000.0 nM
[18] = system: Fibroblast growth factor receptor 3 (Homo sapiens), P22607 [G697C]; settings: Compound concentration 1000.0 nM
[19] = biological target: Mitogen-activated protein kinase kinase kinase 12 (Homo sapiens) (UniProt Q12852); settings: Compound concentration 1000.0 nM
Chain of Mitogen-activated protein kinase kinase kinase 12 (Homo sapiens) (Q12852 whole entry): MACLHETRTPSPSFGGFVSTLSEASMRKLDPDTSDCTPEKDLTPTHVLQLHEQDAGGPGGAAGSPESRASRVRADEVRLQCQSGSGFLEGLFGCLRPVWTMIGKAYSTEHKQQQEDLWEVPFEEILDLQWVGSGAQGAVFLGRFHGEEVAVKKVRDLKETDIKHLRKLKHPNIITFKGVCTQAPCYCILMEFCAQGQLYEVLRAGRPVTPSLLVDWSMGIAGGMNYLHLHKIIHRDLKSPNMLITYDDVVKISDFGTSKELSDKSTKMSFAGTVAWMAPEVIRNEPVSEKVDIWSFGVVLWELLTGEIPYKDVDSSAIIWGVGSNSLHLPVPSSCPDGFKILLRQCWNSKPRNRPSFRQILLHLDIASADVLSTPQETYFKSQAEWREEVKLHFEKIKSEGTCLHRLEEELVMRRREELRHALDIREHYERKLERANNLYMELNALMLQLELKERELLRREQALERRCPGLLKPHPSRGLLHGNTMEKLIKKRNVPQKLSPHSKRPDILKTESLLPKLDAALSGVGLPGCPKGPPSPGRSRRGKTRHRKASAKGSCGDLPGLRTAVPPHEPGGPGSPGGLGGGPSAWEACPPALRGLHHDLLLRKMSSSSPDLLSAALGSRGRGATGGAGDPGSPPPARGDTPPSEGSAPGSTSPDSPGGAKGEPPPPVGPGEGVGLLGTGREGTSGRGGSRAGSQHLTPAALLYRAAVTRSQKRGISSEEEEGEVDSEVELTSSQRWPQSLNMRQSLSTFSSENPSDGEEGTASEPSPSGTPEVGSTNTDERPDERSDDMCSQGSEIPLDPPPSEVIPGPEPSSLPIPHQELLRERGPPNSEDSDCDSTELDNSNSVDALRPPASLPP

[20] = biological target: Dual specificity testis-specific protein kinase 1 (Homo sapiens) (UniProt Q15569); settings: Compound concentration 1000.0 nM
[21] = biological target: Aurora kinase A (Homo sapiens) (UniProt O14965); settings: Compound concentration 1000.0 nM
Chain of Aurora kinase A (Homo sapiens) (O14965 whole entry, canonical isoform): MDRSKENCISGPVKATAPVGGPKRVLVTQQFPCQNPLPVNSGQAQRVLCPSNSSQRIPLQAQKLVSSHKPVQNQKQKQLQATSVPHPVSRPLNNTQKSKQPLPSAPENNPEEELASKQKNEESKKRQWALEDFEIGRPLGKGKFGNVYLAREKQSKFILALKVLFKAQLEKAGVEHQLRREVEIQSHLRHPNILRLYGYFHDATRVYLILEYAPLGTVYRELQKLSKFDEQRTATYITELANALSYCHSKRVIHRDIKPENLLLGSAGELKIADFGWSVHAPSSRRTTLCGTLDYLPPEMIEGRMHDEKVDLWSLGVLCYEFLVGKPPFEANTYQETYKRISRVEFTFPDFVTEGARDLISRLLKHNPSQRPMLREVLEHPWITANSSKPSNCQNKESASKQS

[22] = biological target: Casein kinase I isoform alpha (Homo sapiens) (UniProt P48729); settings: Compound concentration 1000.0 nM
[23] = biological target: Tyrosine-protein kinase ZAP-70 (Homo sapiens) (UniProt P43403); settings: Compound concentration 1000.0 nM
Chain of Tyrosine-protein kinase ZAP-70 (Homo sapiens) (P43403 whole entry): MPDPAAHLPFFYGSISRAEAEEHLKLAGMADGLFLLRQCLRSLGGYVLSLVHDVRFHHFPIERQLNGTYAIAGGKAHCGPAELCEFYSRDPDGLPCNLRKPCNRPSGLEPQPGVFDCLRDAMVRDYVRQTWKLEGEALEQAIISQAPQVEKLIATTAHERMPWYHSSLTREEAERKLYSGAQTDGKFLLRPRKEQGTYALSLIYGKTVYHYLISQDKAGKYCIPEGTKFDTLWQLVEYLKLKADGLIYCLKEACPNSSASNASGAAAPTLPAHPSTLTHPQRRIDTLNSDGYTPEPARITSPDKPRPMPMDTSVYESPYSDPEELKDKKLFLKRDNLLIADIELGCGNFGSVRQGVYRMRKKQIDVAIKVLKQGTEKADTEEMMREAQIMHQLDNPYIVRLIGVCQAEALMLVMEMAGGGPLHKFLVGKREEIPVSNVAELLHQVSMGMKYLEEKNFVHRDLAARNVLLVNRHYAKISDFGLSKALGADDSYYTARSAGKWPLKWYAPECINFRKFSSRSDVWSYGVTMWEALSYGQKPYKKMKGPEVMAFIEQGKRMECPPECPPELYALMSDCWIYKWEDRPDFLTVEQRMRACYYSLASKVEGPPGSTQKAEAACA

[24] = biological target: Testis-specific serine/threonine-protein kinase 1 (Homo sapiens) (UniProt Q9BXA7); settings: Compound concentration 1000.0 nM
[25] = biological target: D(1A) dopamine receptor (Homo sapiens) (UniProt P21728); settings: Compound concentration 10.0 uM
[26] = biological target: G protein-coupled receptor kinase 4 (Homo sapiens) (UniProt P32298); settings: Compound concentration 1000.0 nM
[27] = biological target: Proto-oncogene tyrosine-protein kinase Src (Homo sapiens) (UniProt P12931); settings: Compound concentration 1000.0 nM
Chain of Proto-oncogene tyrosine-protein kinase Src (Homo sapiens) (P12931 2-536 limits assumed): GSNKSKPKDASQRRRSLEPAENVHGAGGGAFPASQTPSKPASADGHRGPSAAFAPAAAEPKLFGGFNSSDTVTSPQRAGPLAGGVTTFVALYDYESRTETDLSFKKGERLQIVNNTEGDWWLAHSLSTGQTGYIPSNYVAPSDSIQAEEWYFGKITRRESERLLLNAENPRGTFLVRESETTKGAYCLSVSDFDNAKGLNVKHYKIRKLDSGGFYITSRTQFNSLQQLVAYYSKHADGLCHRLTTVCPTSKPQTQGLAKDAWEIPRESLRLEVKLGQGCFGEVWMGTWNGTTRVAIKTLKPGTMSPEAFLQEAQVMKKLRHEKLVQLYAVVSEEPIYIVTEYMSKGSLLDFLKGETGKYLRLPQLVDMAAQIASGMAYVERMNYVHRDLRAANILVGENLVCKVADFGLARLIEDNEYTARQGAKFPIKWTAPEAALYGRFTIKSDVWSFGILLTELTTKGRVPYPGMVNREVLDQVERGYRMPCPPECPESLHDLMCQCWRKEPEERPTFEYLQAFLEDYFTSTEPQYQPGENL

[28] = biological target: Ephrin type-A receptor 7 (Homo sapiens) (UniProt Q15375); settings: Compound concentration 1000.0 nM
[29] = biological target: Serine/threonine-protein kinase TAO1 (Homo sapiens) (UniProt Q7L7X3); settings: Compound concentration 1000.0 nM
[30] = biological target: TGF-beta receptor type-2 (Homo sapiens) (UniProt P37173); settings: Compound concentration 1000.0 nM
[31] = biological target: Serine/threonine-protein kinase Nek1 (Homo sapiens) (UniProt Q96PY6); settings: Compound concentration 1000.0 nM
[32] = biological target: G protein-coupled receptor kinase 3 (Homo sapiens) (UniProt P35626); settings: Compound concentration 1000.0 nM
[33] = biological target: Serine/threonine-protein kinase Nek11 (Homo sapiens) (UniProt Q8NG66); settings: Compound concentration 1000.0 nM
[34] = system: Proto-oncogene tyrosine-protein kinase receptor Ret (Homo sapiens), P07949 [V804M]; settings: Compound concentration 1000.0 nM
[35] = biological target: Serine/threonine-protein kinase 10 (Homo sapiens) (UniProt O94804); settings: Compound concentration 1000.0 nM
[36] = system: Receptor-type tyrosine-protein kinase FLT3 (Homo sapiens), P36888 [D835H]; settings: Compound concentration 1000.0 nM
[37] = biological target: Dual specificity tyrosine-phosphorylation-regulated kinase 1B (Homo sapiens) (UniProt Q9Y463); settings: Compound concentration 1000.0 nM
[38] = biological target: Protein kinase C epsilon type (Homo sapiens) (UniProt Q02156); settings: Compound concentration 1000.0 nM
[39] = biological target: Mitogen-activated protein kinase kinase kinase 13 (Homo sapiens) (UniProt O43283); settings: Compound concentration 1000.0 nM
[40] = biological target: Dual specificity mitogen-activated protein kinase kinase 4 (Homo sapiens) (UniProt P45985); settings: Compound concentration 1000.0 nM
[41] = biological target: Beta-1 adrenergic receptor (Homo sapiens, UniProt P08588); settings: Compound concentration 10.0 uM
[42] = biological target: Megakaryocyte-associated tyrosine-protein kinase (Homo sapiens) (UniProt P42679); settings: Compound concentration 1000.0 nM
[43] = biological target: Serine/threonine-protein kinase ULK2 (Homo sapiens) (UniProt Q8IYT8); settings: Compound concentration 1000.0 nM
[44] = biological target: Eukaryotic translation initiation factor 2-alpha kinase 1 (Homo sapiens) (UniProt Q9BQI3); settings: Compound concentration 1000.0 nM
Chain of Eukaryotic translation initiation factor 2-alpha kinase 1 (Homo sapiens) (Q9BQI3 whole entry): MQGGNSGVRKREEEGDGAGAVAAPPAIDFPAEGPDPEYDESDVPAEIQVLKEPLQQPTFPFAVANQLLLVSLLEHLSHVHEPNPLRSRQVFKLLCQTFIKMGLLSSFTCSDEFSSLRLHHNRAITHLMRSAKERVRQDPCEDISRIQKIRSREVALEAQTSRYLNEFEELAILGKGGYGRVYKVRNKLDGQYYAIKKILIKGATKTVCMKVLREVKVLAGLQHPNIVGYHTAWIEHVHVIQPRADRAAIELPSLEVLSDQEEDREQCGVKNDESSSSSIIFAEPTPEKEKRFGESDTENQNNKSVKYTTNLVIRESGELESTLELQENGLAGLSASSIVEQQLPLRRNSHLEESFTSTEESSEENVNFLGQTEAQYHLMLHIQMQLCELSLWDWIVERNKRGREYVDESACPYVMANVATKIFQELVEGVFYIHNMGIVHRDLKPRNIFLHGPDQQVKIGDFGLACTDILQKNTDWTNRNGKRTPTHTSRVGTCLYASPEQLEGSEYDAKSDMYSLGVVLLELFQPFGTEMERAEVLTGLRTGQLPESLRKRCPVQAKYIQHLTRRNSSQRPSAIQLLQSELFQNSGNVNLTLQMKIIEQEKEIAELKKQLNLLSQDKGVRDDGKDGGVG

[45] = biological target: Serine/threonine-protein kinase Nek3 (Homo sapiens) (UniProt P51956); settings: Compound concentration 1000.0 nM
Chain of Serine/threonine-protein kinase Nek3 (Homo sapiens) (P51956 whole entry): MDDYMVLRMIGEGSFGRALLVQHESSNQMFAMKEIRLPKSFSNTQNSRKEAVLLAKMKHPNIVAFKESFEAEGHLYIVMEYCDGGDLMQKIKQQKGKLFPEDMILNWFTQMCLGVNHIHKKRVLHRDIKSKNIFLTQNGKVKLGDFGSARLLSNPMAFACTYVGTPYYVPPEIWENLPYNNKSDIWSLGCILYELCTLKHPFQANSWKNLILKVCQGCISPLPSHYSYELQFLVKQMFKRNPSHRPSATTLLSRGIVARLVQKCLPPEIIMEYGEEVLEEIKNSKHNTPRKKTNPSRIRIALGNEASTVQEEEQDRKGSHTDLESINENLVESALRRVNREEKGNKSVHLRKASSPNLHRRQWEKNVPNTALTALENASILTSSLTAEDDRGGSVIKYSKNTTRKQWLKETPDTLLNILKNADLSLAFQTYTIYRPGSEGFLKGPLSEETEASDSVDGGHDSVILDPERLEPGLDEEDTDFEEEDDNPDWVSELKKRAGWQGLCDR

CC(=O)C1=C(C)N(c2cccc(C(F)(F)F)c2)C(=O)N[C@@H]1c1ccc(C#N)nc1 [BAY-678]
inactive: residual activity [1] 94.8% | residual activity [2] 100% | residual activity [3] 96.7% | residual activity [4] 100% | residual activity [5] 100% | inhibition [6] -0.342% | residual activity [7] 96.2% | residual activity [8] 100% | residual activity [9] 98.2% | residual activity [10] 96.9% | residual activity [11] 89% | residual activity [12] 98.1% | residual activity [13] 87.1% | residual activity [14] 97.1% | residual activity [15] 100% | residual activity [16] 100% | residual activity [17] 100% | residual activity [18] 100% | residual activity [19] 86.8% | residual activity [20] 100% | residual activity [21] 83.9% | residual activity [22] 91.5% | residual activity [23] 88.1% | residual activity [24] 100% | inhibition [25] -8.4% | residual activity [26] 100% | residual activity [27] 95.9% | residual activity [28] 100% | residual activity [29] 100% | residual activity [30] 67.8% | residual activity [31] 100% | residual activity [32] 92.6% | residual activity [33] 100% | residual activity [34] 100% | residual activity [35] 84.5% | residual activity [36] 100% | residual activity [37] 100% | residual activity [38] 73.9% | residual activity [39] 92.4% | residual activity [40] 98.1% | residual activity [42] 100% | residual activity [43] 100% | residual activity [44] 100% | residual activity [45] 72%
active: inhibition [41] 60%
